Results reported in US20040024000A1, “Dihydropyrimidine derivatives as cysteine protease inhibitors” (priority 2003, published 2004).

Columns and labels:
r rat cathepsin L = r rat cathepsin L (Rattus norvegicus, UniProt P07154); experiment: In vitro assay for cathepsin L inhibition; type: biochemical; conditions: substrate N-CBZ-Phe-Arg-AMC, pH 5.0, 10 min preincubation
Procedure: After 10 min of incubation at room temperature, a 20 μl of 1 mM substrate (N-CBZ-Phe-Arg-AMC, dissolved in DMSO) was added to initiate reaction. Reading is followed up for 10 min at the fluoroscan reader (excitation at 380 nm emission at 460 nm).
(§1) A plot of percentage of inhibition vs inhibitor concentration is obtained, and IC50 is determined using a linear regression calculations (concentration of inhibitor which will give 50% inhibition).

r rat cathepsin B = r rat cathepsin B (Rattus norvegicus, UniProt P00787); experiment: In vitro assay for cathepsin B inhibition; type: biochemical; conditions: substrate N-CBZ-Phe-Arg-AMC, pH 5.1, 10 min preincubation
Procedure: The compounds of formula I were tested for inhibition of cathepsin B using the known method (A. J. Barret et al., Biochem. J. 1982, 201, 189-198). To a 170 μl of enzyme-buffer mixture (enzyme: r rat cathepsin B, diluted to give approximate 10 F units/min, buffer: 56 mM sodium acetate, 1.124 mM EDTA, 10 mM DTT, pH 5.1) a 10 μl of inhibitor (dissolved in DMSO) was added. After 10 min of incubation at room temperature, a 20 μl of 5 mM substrate (N-CBZ-Phe-Arg-AMC, dissolved in DMSO) was added to initiate reaction. Reading is followed up for 10 min at the fluoroscan reader (excitation at 380 nm emission at 460 nm).
as §1

r cathepsin S = r cathepsin S (Homo sapiens, UniProt P25774); experiment: In vitro assay for cathepsin S inhibition; type: biochemical; conditions: substrate N-CBZ-Val-Val-Arg-AMC, pH 6.5, 10 min preincubation
Procedure: To a […] of enzyme-buffer mixture (enzyme: r cathepsin S, diluted to give approximate 30 F units/min, buffer: 100 mM sodium phosphate, 1 mM EDTA, 5 mM DTT, 0.01% Brij, pH 6.5) a 10 μl of inhibitor (dissolved in DMSO) was added. After 10 min of incubation at room temperature a […] of 1.2 mM substrate (N-CBZ-Val-Val-Arg-AMC, dissolved in DMSO) was added to initiate reaction. Reading is followed up for 10 min at the fluoroscan 11 plate reader (excitation at 380 nm emission at 460 nm).
as §1

r cathepsin K = molecular target: T1, r cathepsin K (Homo sapiens, UniProt P43235); experiment: In vitro assay for cathepsin K inhibition; type: biochemical; conditions: substrate N-CBZ-Phe-Arg-AMC, pH 5.5, 10 min preincubation
T1 sequence (P43235 115-329): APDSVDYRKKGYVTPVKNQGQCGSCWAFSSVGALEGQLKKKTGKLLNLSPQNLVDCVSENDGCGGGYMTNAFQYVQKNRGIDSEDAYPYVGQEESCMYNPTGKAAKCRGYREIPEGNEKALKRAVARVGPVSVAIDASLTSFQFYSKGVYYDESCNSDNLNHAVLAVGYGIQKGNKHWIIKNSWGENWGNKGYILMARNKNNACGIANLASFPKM
Procedure: To a […] of enzyme-buffer mixture (enzyme: r cathepsin K, diluted to give approximate 30 F units/min, buffer: 100 mM sodium acetate, 5 mM EDTA, 20 mM L-cysteine, 0.01% Brij, pH 5.5) a 10 μl of inhibitor (dissolved in DMSO) was added. After 10 min of incubation at room temperature, a 20 μl of 2.7 mM substrate (N-CBZ-Phe-Arg-AMC, dissolved in DMSO) was added to initiate reaction. Reading is followed up for 10 min at the fluoroscan II plate reader (excitation at 380 nm emission at 460 nm).
as §1

[1] = Pharmacokinetics in mice after single oral dose; type: in vivo; parameters: Cl/F: unit not given here; conditions: single oral dose of 5 mg/kg; for AUC / Cmax / half-life / Vd/F: mouse, in vivo; for Vd/F: read-out: Vz/F
Procedure: Selected compounds of present invention were tested in rodents. This class of compound has favorable pharmacokinetics at the oral dose of 5 mg/kg. The bioavailability is about 60-70%.

Chain of r cathepsin S (P25774 115-331): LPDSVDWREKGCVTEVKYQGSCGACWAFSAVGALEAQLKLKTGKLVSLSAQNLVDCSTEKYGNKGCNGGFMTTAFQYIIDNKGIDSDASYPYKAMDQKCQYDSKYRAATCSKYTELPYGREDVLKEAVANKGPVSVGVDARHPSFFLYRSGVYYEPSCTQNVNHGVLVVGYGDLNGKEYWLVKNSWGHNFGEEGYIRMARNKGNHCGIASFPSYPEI
Chain of r rat cathepsin L (P07154 114-334): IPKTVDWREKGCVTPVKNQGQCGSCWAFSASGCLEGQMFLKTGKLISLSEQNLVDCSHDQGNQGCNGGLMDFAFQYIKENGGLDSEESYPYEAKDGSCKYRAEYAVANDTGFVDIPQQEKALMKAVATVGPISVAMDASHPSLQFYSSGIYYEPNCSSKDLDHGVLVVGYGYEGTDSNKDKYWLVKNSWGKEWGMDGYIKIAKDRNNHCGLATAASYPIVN
Chain of r rat cathepsin B (P00787 80-333): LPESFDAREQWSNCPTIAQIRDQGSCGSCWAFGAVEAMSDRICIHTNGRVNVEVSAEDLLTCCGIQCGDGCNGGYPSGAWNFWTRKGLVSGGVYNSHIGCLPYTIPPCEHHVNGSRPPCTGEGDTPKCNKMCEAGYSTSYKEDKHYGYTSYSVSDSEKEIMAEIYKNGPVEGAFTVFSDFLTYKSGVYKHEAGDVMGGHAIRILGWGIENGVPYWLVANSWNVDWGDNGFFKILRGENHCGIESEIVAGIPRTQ

IC50 (r rat cathepsin L) [nM]	IC50 (r rat cathepsin B) [nM]	IC50 (r cathepsin S) [nM]	IC50 (r cathepsin K) [nM]	AUC [1] [ng·h/mL]	Cmax [1] [ng/mL]	half-life [1] [h]	Vd/F [1] [L/kg]	Cl/F [1]	Compound
460	4010	460	340	–	–	–	–	–	CC(C)C[C@H](NC(=O)OCc1ccccc1)C(=O)NC1=CNC(c2ccccc2)NC1=O (stereo partly drawn) [Example 1, 5-[2-(Benzyloxycarbonyl)amino-2-isobutyl]acetamido-2-phenyl-2,3-dihydopyrimidine-6-(1H)one]
920	8380	290	57	–	–	–	–	–	CC(C)C[C@H](NC(=O)OCc1ccccc1)C(=O)NC1=CNC(c2ccccc2F)NC1=O (stereo partly drawn) [Example 2, 5-[2-(Benzyloxycarbonyl)amino-2-isobutyl]acetamido-2-(2-fluorophenyl)-2,3-dihydopyrimidine-6-(1H)one]
480	4560	480	74	–	–	–	–	–	CC(C)C[C@H](NC(=O)OCc1ccccc1)C(=O)NC1=CNC(C(C)(C)C)NC1=O (stereo partly drawn) [Example 8, 5-[2-(Benzyloxycarbonyl)-amino-2-isobutyl]acetamido-2-tert-butyl-2,3-dihydopyrimidine-6-(1H)one]
460	2290	55	18	–	–	–	–	–	CC(C)C[C@H](NC(=O)OCc1ccccc1)C(=O)NC1=CNC(c2ccncc2)NC1=O (stereo partly drawn) [Example 9, 5-[2-(Benzyloxycarbonyl)-amino-2-isobutyl]acetamido-2-(pyridin-4-yl)-2,3-dihydopyrimidine-6-(1H)one]
2320	9530	2320	250	–	–	–	–	–	CC(C)C[C@H](NC(=O)OCc1ccccc1)C(=O)NC1=CNC(CC(C)(C)C)NC1=O (stereo partly drawn) [Example 10, 5-[2-(Benzyloxycarbonyl)-amino-2-isobutyl]acetamido-2-tert-butylmethyl-2,3-dihydopyrimidine-6-(1H)one]
1500	2350	94	45	–	–	–	–	–	CC(C)C[C@H](NC(=O)OCc1ccccc1)C(=O)NC1=CNC(c2ccco2)NC1=O (stereo partly drawn) [Example 20, 5-[2-(Benzyloxycarbonyl)amino-2-isobutyl]acetamido-2-(furan-2-yl)-2,3-dihydopyrimidine-6-(1H)one]

The remaining lines, values behind:

Compound	IC50 (r rat cathepsin L) [nM]	IC50 (r rat cathepsin B) [nM]	IC50 (r cathepsin S) [nM]	IC50 (r cathepsin K) [nM]	AUC [1] [ng·h/mL]	Cmax [1] [ng/mL]	half-life [1] [h]	Vd/F [1] [L/kg]	Cl/F [1]
CC(C)C[C@H](NC(=O)OCc1ccccc1)C(=O)NC1=CNC2(CCCC2)NC1=O [Example 6, 5-[2-(Benzyloxycarbonyl)amino-2-isobutyl]acetamido-2,2-spirocyclopentyl-2,3-dihydopyrimidine-6-(1H)one]	1790	3160	480	100	2730	3830 ± 3090	1.63 ± 0.48	4.49 ± 1.9	0.617 ± 0.08
CC(C)C[C@H](NC(=O)OCc1ccccc1)C(=O)Nc1c[nH]c(=O)[nH]c1=O [Example 14, 5-[2-(Benzyloxycarbonyl)-amino-2-isobutyl]acetamido Pyrimidin-2,6-dione]	> 50000	> 50000	> 50000	> 50000	–	–	–	–	–
CC(C)C[C@H](NC(=O)CCc1ccccc1)C(=O)NC1=CNC2(CCCC2)NC1=O [Example 17, 5-[2-(3-Phenylpropionyl)-amino-2-isobutyl]acetamido-2,2-spirocyclopentyl-2,3-dihydopyrimidine-6-(1H)one]	> 50000	> 50000	8490	12100	–	–	–	–	–
CC(C)C[C@H](NC(=O)CCc1ccccc1)C(=O)NC1=CNC2(CCCCCC2)NC1=O [Example 19, 5-[2-(3-Phenylpropionoyl)-amino-2-isobutyl]acetamido-2,2-spirocycloheptyl-2,3-dihydopyrimidine-6-(1H)one]	450	5220	68	91	–	–	–	–	–
CC(C)C[C@H](NC(=O)c1cc2ccccc2s1)C(=O)NC1=CNC(c2ccccc2F)NC1=O (stereo partly drawn) [Example 21, 5-[2-(Benzothiophene-2-yl)amino-2-isobutyl]acetamido-2-(2-fluorophenyl)-2,3-dihydopyrimidine-6-(1H)one]	170	420	37	14	853	2610 ± 1840	0.54 ± 0.39	4.49 ± 3.03	2.09 ± 0.72
